Test results: ChEMBL document CHEMBL5136977, “Discovery of 1-(5-(1H-benzo[d]imidazole-2-yl)-2,4-dimethyl-1H-pyrrol-3-yl)ethan-1-one derivatives as novel and potent bromodomain and extra-terminal (BET) inhibitors with anticancer efficacy” (Eur J Med Chem, 2022)
Calls of active or inactive are those of the source. No cut-off for these calls is given here.

Key:
[1] = Volume of distribution in Sprague-Dawley rat at 1 mg/kg, iv by LC-MS/MS analysis; assay type: ADME, organism-based; conditions: in vivo
[2] = tested on: MV4-11; assay: Antitumor activity against human MV4-11 cells xenografted BALB/c nude mouse model assessed as tumor growth inhibition at 80 mg/kg, po QD administered for 28 consecutive days; assay type: functional; conditions: MV4-11, 672 h, time 28 day, read-out: TGI
[3] = Metabolic stability in rat liver microsomes assessed as elimination half life incubated for 1 hr by LC-MS/MS analysis; assay type: ADME, Microsome; conditions: read-out: beta t1/2
[4] = Half life in Sprague-Dawley rat at 10 mg/kg, po by LC-MS/MS analysis; assay type: ADME, organism-based; conditions: in vivo
[5] = tested on: MV4-11; assay: Induction of cell cycle arrest in human MV4-11 cells assessed as accumulation of cells at S phase at 200 nM incubated for 48 hrs by propidium iodide staining based flow cytometric analysis (reference value: 26.29%); assay type: functional
[6] = tested on: CAKI-1; assay: Antiproliferative activity against human CAKI-1 cells assessed as cell growth inhibition measured after 72 hrs by CellTiter-Glo assay; assay type: functional
[7] = AUC (0 to infinity) in Sprague-Dawley rat at 10 mg/kg, po by LC-MS/MS analysis; assay type: ADME, organism-based; set-up: time infinity, dose 10 mg/kg, route po; conditions: in vivo
[8] = Metabolic stability in dog liver microsomes assessed as intrinsic clearance incubated for 1 hr by LC-MS/MS analysis; assay type: ADME, Canis lupus familiaris, Microsome; conditions: read-out: CLH
[9] = tested on: SNB-75; assay: Antiproliferative activity against human SNB-75 cells assessed as cell growth inhibition measured after 72 hrs by CellTiter-Glo assay; assay type: functional
[10] = C0 in Sprague-Dawley rat at 1 mg/kg, iv by LC-MS/MS analysis; assay type: ADME, organism-based; conditions: in vivo
[11] = tested on: MV4-11; assay: Antitumor activity against human MV4-11 cells xenografted BALB/c nude mouse model assessed as tumor growth inhibition at 40 mg/kg, po QD administered for 28 consecutive days; assay type: functional; conditions: MV4-11, 672 h, time 28 day, read-out: TGI
[12] = Metabolic stability in human liver microsomes assessed as intrinsic clearance incubated for 1 hr by LC-MS/MS analysis; assay type: ADME, Microsome; conditions: read-out: CLH
[13] = Toxicity in BALB/c nude mouse xenografted with human MV4-11 cells assessed as effect on body weight at 20 to 80 mg/kg, po QD administered for 28 consecutive days; assay type: organism-based; conditions: in vivo, 672 h, dose 20-80 mg/kg, time 28 day
[14] = tested on: MV4-11; assay: Antitumor activity against human MV4-11 cells xenografted BALB/c nude mouse model assessed as tumor growth inhibition at 20 mg/kg, po QD administered for 28 consecutive days; assay type: functional; conditions: MV4-11, 672 h, time 28 day, read-out: TGI
[15] = Induction of cell apoptosis in human MV4-11 cells assessed as […] cells at 500 nM incubated for 48 hrs by Annexin V-FITC/Propidium iodide staining based flow cytometry analysis (reference value: 96.6%); assay type: functional
[16] = Metabolic stability in rat liver assessed as intrinsic clearance incubated for 1 hr by LC-MS/MS analysis; assay type: ADME, tissue-based; conditions: read-out: CLH
[17] = tested on: NCI-H522; assay: Antiproliferative activity against human NCI-H522 cells assessed as cell growth inhibition measured after 72 hrs by CellTiter-Glo assay; assay type: functional
[18] = Metabolic stability in monkey liver assessed as intrinsic clearance incubated for 1 hr by LC-MS/MS analysis; assay type: ADME, tissue-based, Macaca mulatta; conditions: rhesus monkey, read-out: CLH
[19] = Induction of cell apoptosis in human MV4-11 cells assessed as early apoptotic cells at 200 nM incubated for 48 hrs by Annexin V-FITC/Propidium iodide staining based flow cytometry analysis (reference value: 1.42%); assay type: functional
[20] = tested on: HCT-15; assay: Antiproliferative activity against human HCT-15 cells assessed as cell growth inhibition measured after 72 hrs by CellTiter-Glo assay; assay type: functional
[21] = Induction of cell apoptosis in human MV4-11 cells assessed as […] cells at 200 nM incubated for 48 hrs by Annexin V-FITC/Propidium iodide staining based flow cytometry analysis (reference value: 96.6%); assay type: functional
[22] = Induction of cell apoptosis in human MV4-11 cells assessed as early apoptotic cells at 1000 nM incubated for 48 hrs by Annexin V-FITC/Propidium iodide staining based flow cytometry analysis (reference value: 1.42%); assay type: functional
[23] = tested on: MV4-11; assay: Induction of cell cycle arrest in human MV4-11 cells assessed as accumulation of cells at G0/G1 phase at 100 nM incubated for 48 hrs by propidium iodide staining based flow cytometric analysis (reference value: 65.71%); assay type: functional
[24] = Metabolic stability in dog liver assessed as intrinsic clearance incubated for 1 hr by LC-MS/MS analysis; assay type: ADME, tissue-based, Canis lupus familiaris; conditions: read-out: CLH
[25] = Cmax in Sprague-Dawley rat at 10 mg/kg, po by LC-MS/MS analysis; assay type: ADME, organism-based; set-up: dose 10 mg/kg, route po; conditions: in vivo
[26] = tested on: MV4-11; assay: Induction of cell cycle arrest in human MV4-11 cells assessed as accumulation of cells at G2/M phase at 100 nM incubated for 48 hrs by propidium iodide staining based flow cytometric analysis (reference value: 8%); assay type: functional
[27] = Metabolic stability in dog liver microsomes assessed as elimination half life incubated for 1 hr by LC-MS/MS analysis; assay type: ADME, Canis lupus familiaris, Microsome; conditions: read-out: beta t1/2
[28] = tested on: MV4-11; assay: Induction of cell cycle arrest in human MV4-11 cells assessed as accumulation of cells at G2/M phase at 200 nM incubated for 48 hrs by propidium iodide staining based flow cytometric analysis (reference value: 8%); assay type: functional
[29] = Metabolic stability in monkey liver microsomes assessed as intrinsic clearance incubated for 1 hr by LC-MS/MS analysis; assay type: ADME, Macaca mulatta, Microsome; conditions: rhesus monkey, read-out: CLH
[30] = Tmax in Sprague-Dawley rat at 10 mg/kg, po by LC-MS/MS analysis; assay type: ADME, organism-based; conditions: in vivo
[31] = AUC (0 to infinity) in Sprague-Dawley rat at 1 mg/kg, iv by LC-MS/MS analysis; assay type: ADME, organism-based; set-up: time infinity, dose 1 mg/kg, route iv; conditions: in vivo
[32] = Metabolic stability in monkey liver microsomes assessed as elimination half life incubated for 1 hr by LC-MS/MS analysis; assay type: ADME, Macaca mulatta, Microsome; conditions: rhesus monkey, read-out: beta t1/2
[33] = Induction of cell apoptosis in human MV4-11 cells assessed as late apoptotic cells at 1000 nM incubated for 48 hrs by Annexin V-FITC/Propidium iodide staining based flow cytometry analysis (reference value: 1.99%); assay type: functional
[34] = Half life in Sprague-Dawley rat at 1 mg/kg, iv by LC-MS/MS analysis; assay type: ADME, organism-based; conditions: in vivo
[35] = Metabolic stability in human liver microsomes assessed as elimination half life incubated for 1 hr by LC-MS/MS analysis; assay type: ADME, Microsome; conditions: read-out: beta t1/2
[36] = tested on: HL-60(TB); assay: Antiproliferative activity against human HL-60(TB) cells assessed as cell growth inhibition measured after 72 hrs by CellTiter-Glo assay; assay type: functional
[37] = tested on: MV4-11; assay: Induction of cell cycle arrest in human MV4-11 cells assessed as downregulation of c-myc expression incubated for 24 hrs by Western blotting analysis; assay type: functional, cell-based; conditions: dose 62.5-250 nM, DDE = dose-dependent effect
[38] = tested on: UACC-62; assay: Antiproliferative activity against human UACC-62 cells assessed as cell growth inhibition measured after 72 hrs by CellTiter-Glo assay; assay type: functional
[39] = tested on: MV4-11; assay: Induction of cell apoptosis in human MV4-11 cells assessed as upregulation of cleaved PARP level at 62.5 to 250 nM incubated for 24 hrs by Western blotting analysis; assay type: functional, cell-based; conditions: dose 62.5-250 nM
[40] = Induction of cell apoptosis in human MV4-11 cells assessed as late apoptotic cells at 500 nM incubated for 48 hrs by Annexin V-FITC/Propidium iodide staining based flow cytometry analysis (reference value: 1.99%); assay type: functional

## CC(=O)c1c(C)[nH]c(-c2nc3cc(N4CCN(C)CC4)ccc3[nH]2)c1-c1ccccc1
[1]
  Vd: 3.3 L/kg
[2]
  inhibition in vivo at 80 mg/kg: 34.8%
[3]
  half-life: 66.4 min
[4]
  half-life: 242 min
[5]
  Activity: 9.68%
[6]
  GI50: 211 nM
[7]
  AUC(0-inf): 8050 ng·h/mL
[8]
  microsomal CLint: 92.2 µL/min/mg
[9]
  GI50: 41.6 nM
[10]
  C0: 548 ng/mL
[11]
  inhibition in vivo at 40 mg/kg: 103%
[12]
  microsomal CLint: 7.03 µL/min/mg
[13]
  Activity: Non-Toxic
[14]
  inhibition in vivo at 20 mg/kg: 48.7%
[15]
  Activity: 6.31%
[16]
  CLint scaled: 37.6 mL/min/kg
[17]
  GI50: 258 nM
[18]
  CLint scaled: 23.8 mL/min/kg
[19]
  Activity: 5.31%
[20]
  GI50: 261 nM
[21]
  Activity: 89.7%
[22]
  Activity: 39.3%
[23]
  Activity: 75.41%
[24]
  CLint scaled: 133 mL/min/kg
[25]
  Cmax: 1270 ng/mL
[26]
  Activity: 6.33%
[27]
  half-life: 15 min
[28]
  Activity: 2.92%
[29]
  microsomal CLint: 16.5 µL/min/mg
[30]
  Tmax: 3.33 h
[31]
  AUC(0-inf): 725 ng·h/mL
[32]
  half-life: 85.4 min
[33]
  Activity: 12.2%
[34]
  half-life: 112 min
[35]
  half-life: 199 min
[36]
  GI50: 261 nM
[37]
  Activity: Dde
[38]
  GI50: 274 nM
[39]
  Activity: Active
[40]
  Activity: 76.4%
